# Assay results: patent US20220267380A1, “Glycopeptides Increasing Lipid Synthesis” (TFCHEM, priority 2019, published 2022)
# Tested on: normal human dermal fibroblasts (NHDF)
# Test: Gene expression in NHDF, full transcriptome analysis with Affymetrix U219 microarray
# Assay type: cell-based
# Conditions: NHDF
# Description: In the present study, the transcriptional effects (modulation of gene expression) of compounds 1, 2, 3 and 4 were evaluated on normal human dermal fibroblasts (NHDF) under basal conditions.
# More specifically, the comparative analysis of the different transcriptomic profiles was performed using an Affymetrix GeneAtlas platform and the human “full transcriptome” U219 chip, which includes 36,000 transcripts and variants.
# Fibroblasts were seeded in 24-well plates and cultured in culture medium for 24 hours. The medium was then replaced by assay medium and cells were incubated for further 24 hours. The medium was replaced by assay medium containing or not (control) the test compounds at different concentrations and the cells were preincubated for 24 hours. All experimental conditions were performed in triplicate. At the end of incubation, the culture supernatants were removed and the cells were washed in a phosphate buffered saline (PBS) solution and immediately frozen at −80° C.
# Before RNA extraction, the replicates were pooled. Total RNA was extracted from each sample using TriPure Isolation Reagent® according to the supplier's instructions. The amount and quality of total RNA were evaluated for all samples using capillary electrophoresis (Bioanalyzer 2100, Agilent technologies). From each RNA, a labeled and amplified anti-sens RNA (aRNA) was obtained using GeneChip 3′IVT PLUS Kit (Affymetrix). For each labeled and amplified aRNA sample the profiles were evaluated before and after fragmentation using capillary electrophoresis (Bioanalyzer 2100, Agilent technologies). Hybridization of fragmented aRNA onto Affymetrix® U219 chip (36,000 transcripts and variants) was performed in the GeneAtlas™ fluidics Affymetrix® hybridization station for 20 hours at 45° C. U219 chip was analyzed using the GeneAtlas™ Imaging station (Affymetrix®—resolution 2 μm) to generate fluorescence intensity data.
# Expression Console and Quality controls: data were normalized with the Expression Console (Affymetrix®) software using RMA algorithm. Then a quality control of the labeling and the hybridization was performed. Hybridization and labeling steps successfully passed the quality controls for these experiments.
# Data reduction, Excel file description: once normalized with Expression Console, data were transferred into a Microsoft Excel® file in order to go further into data reduction.
# Calculation and tools were added in order to rank and sort data, and finally to support data interpretation. Detection thresholds in terms of fold change were defined and applied on normalized data.
# Results are considered and presented or commented per gene (and not probe). A probe set is a collection of probes designed to interrogate a given sequence of a gene. For data interpretation, the most important relative expression value obtained with one probe is considered to be representative of the corresponding gene. The file contains the following data: • Relative expression (RE) for each sample, • Fold change calculation, • Gene information.
smiles,measurement,setting,value
C[C@H](NC(=O)[C@H](C)NC(=O)[C@@H](N)CCCCNCC(F)(F)[C@]1(O)O[C@H](CO)[C@H](O)[C@H](O)[C@H]1O)C(=O)O [Compound 1],effect of treatment of NHDF on lipid synthesis (transcriptional),,up regulation of lipid and cholesterol synthesis
same,"Fold change, ABCA1","10 mg/ml, 24 h, vs control",2.11
same,"Fold change, ABHD4","10 mg/ml, 24 h, vs control",2.05
same,"Fold change, ABHD5","10 mg/ml, 24 h, vs control",2.63
same,"Fold change, ACAT2","10 mg/ml, 24 h, vs control",2.12
same,"Fold change, AKR1C1","10 mg/ml, 24 h, vs control",2.13
same,"Fold change, AKR1C2","10 mg/ml, 24 h, vs control",2.60
same,"Fold change, CH25H","10 mg/ml, 24 h, vs control",0.36
same,"Fold change, CYP51A1///LRRD1","10 mg/ml, 24 h, vs control",2.20
same,"Fold change, DHCR7","10 mg/ml, 24 h, vs control",3.68
same,"Fold change, HMGCR","10 mg/ml, 24 h, vs control",2.02
same,"Fold change, HSD17B7","10 mg/ml, 24 h, vs control",2.44
same,"Fold change, HSD17B14","10 mg/ml, 24 h, vs control",2.00
same,"Fold change, IDI1","10 mg/ml, 24 h, vs control",2.01
same,"Fold change, LPIN1","10 mg/ml, 24 h, vs control",2.46
same,"Fold change, LRP8","10 mg/ml, 24 h, vs control",2.95
same,"Fold change, MSMO1","10 mg/ml, 24 h, vs control",2.03
same,"Fold change, MVD","10 mg/ml, 24 h, vs control",2.45
same,"Fold change, NEU1","10 mg/ml, 24 h, vs control",2.74
same,"Fold change, PCYT2","10 mg/ml, 24 h, vs control",2.41
same,"Fold change, PLD1","10 mg/ml, 24 h, vs control",2.15
same,"Fold change, PTPLA","10 mg/ml, 24 h, vs control",2.31
same,"Fold change, SOAT1","10 mg/ml, 24 h, vs control",2.01
same,"Fold change, SREBF1","10 mg/ml, 24 h, vs control",3.24
same,"Fold change, DHCR24","10 mg/ml, 24 h, vs control, probe set 11715460_a_at",2.05
same,"Fold change, POR","10 mg/ml, 24 h, vs control, probe set 11716114_x_at",2.20
same,"Fold change, INSIG1","10 mg/ml, 24 h, vs control, probe set 11716337_s_at",2.46
same,"Fold change, INSIG1","10 mg/ml, 24 h, vs control, probe set 11716338_a_at",3.42
same,"Fold change, INSIG1","10 mg/ml, 24 h, vs control, probe set 11716339_a_at",3.38
same,"Fold change, HMGCS1","10 mg/ml, 24 h, vs control, probe set 11716987_a_at",3.15
same,"Fold change, APOD","10 mg/ml, 24 h, vs control, probe set 11717295_s_at",0.30
same,"Fold change, LSS","10 mg/ml, 24 h, vs control, probe set 11717620_a_at",2.08
same,"Fold change, EBP","10 mg/ml, 24 h, vs control, probe set 11717859_a_at",2.68
same,"Fold change, FDPS","10 mg/ml, 24 h, vs control, probe set 11718366_s_at",2.02
same,"Fold change, MVK","10 mg/ml, 24 h, vs control, probe set 11719098_a_at",2.08
same,"Fold change, GBA///GBAP1","10 mg/ml, 24 h, vs control, probe set 11719908_a_at",2.93
same,"Fold change, LDLR","10 mg/ml, 24 h, vs control, probe set 11720028_x_at",2.53
same,"Fold change, LDLR","10 mg/ml, 24 h, vs control, probe set 11720029_a_at",2.11
same,"Fold change, PTGS1","10 mg/ml, 24 h, vs control, probe set 11722208_a_at",2.77
same,"Fold change, PTGS1","10 mg/ml, 24 h, vs control, probe set 11722209_a_at",2.62
same,"Fold change, PTGS1","10 mg/ml, 24 h, vs control, probe set 11722210_a_at",3.14
same,"Fold change, LSS","10 mg/ml, 24 h, vs control, probe set 11724199_x_at",2.21
same,"Fold change, PGS1","10 mg/ml, 24 h, vs control, probe set 11724792_a_at",2.01
same,"Fold change, KDSR","10 mg/ml, 24 h, vs control, probe set 11730180_s_at",2.16
same,"Fold change, KDSR","10 mg/ml, 24 h, vs control, probe set 11730181_s_at",2.29
same,"Fold change, LSS","10 mg/ml, 24 h, vs control, probe set 11731324_a_at",2.53
same,"Fold change, GBA","10 mg/ml, 24 h, vs control, probe set 11736100_a_at",2.74
same,"Fold change, CHKA","10 mg/ml, 24 h, vs control, probe set 11736285_a_at",2.27
same,"Fold change, CHKA","10 mg/ml, 24 h, vs control, probe set 11736286_a_at",3.00
same,"Fold change, PHLDB2","10 mg/ml, 24 h, vs control, probe set 11737039_a_at",2.96
same,"Fold change, PHLDB2","10 mg/ml, 24 h, vs control, probe set 11737041_a_at",2.45
same,"Fold change, PHLDB2","10 mg/ml, 24 h, vs control, probe set 11737042_s_at",2.97
